Data reported in ChEMBL document CHEMBL5625185 (Eur J Med Chem, 2023).

What was measured:
Format in all cases: ADME, organism-based
Details in all cases: in vivo; call rule not given here
[1] = Drug distribution in wild type mouse liver at 50 mg/kg, po measured after 1 hr by UPLC-QTOFMS analysis
[2] = Drug distribution in wild type mouse spleen at 50 mg/kg, po measured after 1 hr by UPLC-QTOFMS analysis
[3] = Drug distribution in wild type mouse kidney at 50 mg/kg, po measured after 1 hr by UPLC-QTOFMS analysis
[4] = Drug distribution in wild type mouse brain at 50 mg/kg, po measured after 1 hr by UPLC-QTOFMS analysis
[5] = Drug distribution in wild type mouse testis at 50 mg/kg, po measured after 1 hr by UPLC-QTOFMS analysis
[6] = Cmax in wild type mouse at 50 mg/kg, po measured upto 8 hrs by UPLC-QTOFMS analysis
[7] = Drug distribution in wild type mouse lung at 50 mg/kg, po measured after 1 hr by UPLC-QTOFMS analysis

| SMILES | Drug uptake [1] | Drug uptake [2] | Drug uptake [3] | Drug uptake [4] | Drug uptake [5] | Cmax [6] | Drug uptake [7] |
| --- | --- | --- | --- | --- | --- | --- | --- |
| COc1ccc2c3c([nH]c2c1)[C@H](CC(C)C)N1C(=O)[C@H](CCC(=O)NC(C)C)NC(=O)[C@@H]1C3 | Active | Active | Active | Not Active | Not Active | 8.74 µM | Active |
| COc1ccc2c3c([nH]c2c1)[C@H](CC(C)C)N1C(=O)[C@H](CCC(=O)NC(C)(C)C)NC(=O)[C@@H]1C3 | Active | Active | Active | Not Active | Not Active |  | Active |
